Columns and labels:
FgenL model RNA = format: biochemical, Trichoderma atroviride; conditions: percent protection, pH 11.0, 44° C., 16 hours, n = 2
Procedure: The ddPCR assays measure RNA integrity by converting intact RNA to cDNA by reverse transcription, then performing digital PCR in thousands of nanoliter-sized droplets for each sample. PCR is performed within each droplet, which allows for more sensitive detection of subtle changes in RNA concentration compared to traditional PCR or qPCR. Additionally, primers/probes specific to the 5′ end of the RNA/cDNA transcript(s) are used to assess fragment integrity—e.g. degraded RNA will have fewer 5′ positive droplets. The BioRad QX200 Droplet Digital PCR System was used for the ddPCR workflow.
Basic assay procedure: RNA samples (Chi18 or FgenL fragments) were diluted to 25 fg/μL or 10 fg/μL, respectively, in 50 mM […] buffer pH 11.0. Amino acid stocks were made up in 50 mM CAPS buffer, pH 11.0 and subsequently re-adjusted to pH 11.0, post solubilization. Amino acid stocks were tested in a dose-response format to determine EC50. An amino acid dilution plate containing a ˜300 mM (or appropriate) top-concentration of amino acid in 50 mM CAPS buffer was serially (half-log) diluted for 10 times. 0.6 μL of this compound dilution plate was spotted into a 96-well PCR plate (Thermo). Sample RNAs were added (6 μL) and incubated with test amino acid as described below.
Degradation reaction: Treated RNAs were incubated for 16 hours at 30° C. for Chi18 samples or 44° C. for FgenL samples. Upon completion of the degradation reaction, cDNA was made from the intact RNA by Reverse Transcription and ddPCR run for each sample (96 well plates). Positive 5′ droplet values were divided by the total accepted droplet values for each sample and a ratio value generated for each sample.
EC50 was determined by using a four parameter logistic equation: Y=A+((B−A)/(1+(C/X)D)); where Y is percent protection, X is compound concentration, A and B are minimum and maximum asymptotes, respectively, C is EC50, and D is Hill slope.

HEK-293T cell monolayer = format: cell-based
VSV G pseudotyped virus = system: VSV G pseudotyped virus; design: species or system BALB/c mice; conditions: mouse
FgenL mRNA construct = experiment: Size Exclusion Base Hydrolysis Degradation Assay, FgenL; format: biochemical, Trichoderma atroviride; conditions: 25 mM amino acid; for T0 R1 peak area at 250 nm: FgenL 0.1 mg/mL, 50 mM CAPS, T=0, replicate 1; for T2 Avg, peak area as percentage of T=0 / T2 R1 peak area at 250 nm / T10 Avg, peak area as percentage of T=0 / T10 R1 peak area at 250 nm / T24 Avg, peak area as percentage of T=0 / T24 R1 peak area at 250 nm / T0 Avg, peak area as percentage of T=0: FgenL; for T2 Avg, peak area as percentage of T=0 / T2 R1 peak area at 250 nm / T10 Avg, peak area as percentage of T=0 / T10 R1 peak area at 250 nm / T24 Avg, peak area as percentage of T=0 / T24 R1 peak area at 250 nm: 50 mM CAPS pH 11, room temperature; for T2 Avg, peak area as percentage of T=0 / T2 R1 peak area at 250 nm: 2 hrs; for T2 R1 peak area at 250 nm / T10 R1 peak area at 250 nm / T24 R1 peak area at 250 nm: replicate 1; for T10 Avg, peak area as percentage of T=0 / T10 R1 peak area at 250 nm: 10 hrs; for T24 Avg, peak area as percentage of T=0 / T24 R1 peak area at 250 nm: 24 hrs; for T0 Avg, peak area as percentage of T=0: T=0 (reference)
Procedure: Basic assay procedure: RNA samples were diluted to 1.0 mg/mL in DNAase/RNAase free water. Amino acids were dissolved in water to a stock solution of 100 mM and a solution of 500 mM CAPS pH 11 was used. The two mRNA constructs tested were FgenL and Chi18. Each individual sample volume was 50 μL. To determine the amount of 1 M NaOH needed to adjust the final pH to 11.0 after the addition of all sample components, the sample volume was increased 100 fold (5 mL), the volume of 1 M NaOH recorded and this value was translated back down to the 50 μL sample volume.
The mRNA and amino acid were allowed to incubate for one hour prior to the addition of CAPS pH 11. All steps of the assay were conducted at room temperature.
Degradation reaction: After the CAPS addition, the samples were injected onto the Waters H-Class UPLC system to record the first timepoint, T=O. This resulting chromatogram was processed by integrating the area of absorbance at 250 nm for the mRNA construct. Immediately following this timepoint, the pH was adjusted to 11. Subsequent time points (2 hrs, 10 hrs, and 24 hrs) recorded the Absorbance Units (peak area) at 250 nm as a percentage of the peak area determined at T=O. Integration of the chromatogram for subsequent timepoints was conducted by analyzing the area of absorbance at 250 nm contained within the same time window in which the peak eluted in T=0 for the 100% intact mRNA.

| Compound | EC50 (FgenL model RNA) [mM] | IVE of the Tris/Sucrose LNP formulation upon inclusion of glutamic acid (HEK-293T cell monolayer) [%] | effect on in vitro expression (IVE) of the Tris/Sucrose LNP formulation (HEK-293T cell monolayer) | stabilization as measured by functional immunogenic response in vivo (VSV G pseudotyped virus) | T0 R1 peak area at 250 nm (FgenL mRNA construct) | T2 Avg, peak area as percentage of T=0 (FgenL mRNA construct) [%] | T2 R1 peak area at 250 nm (FgenL mRNA construct) | T10 Avg, peak area as percentage of T=0 (FgenL mRNA construct) [%] | T10 R1 peak area at 250 nm (FgenL mRNA construct) | T24 Avg, peak area as percentage of T=0 (FgenL mRNA construct) [%] | T24 R1 peak area at 250 nm (FgenL mRNA construct) | T0 Avg, peak area as percentage of T=0 (FgenL mRNA construct) [%] |
| --- | --- | --- | --- | --- | --- | --- | --- | --- | --- | --- | --- | --- |
| N[C@@H](CCC(=O)O)C(=O)O [Glutamic acid] | 19 | 70 | improved | significant stabilization | 14529 | 73.9 | 10330 | 39.7 | 8449 | 0.0 | 0 | 100.0 |
| N[C@@H](Cc1c[nH]c2ccccc12)C(=O)O [Tryptophan] | > 30 |  |  |  | 15191 | 30.2 | 4991 | 0.0 | 0 | 0.0 | 0 | 100.0 |
| N[C@@H](Cc1ccc(O)cc1)C(=O)O [Tyrosine] | > 30 |  |  |  | 22082 | 64.7 | 13039 | 15.0 | 1912 | 5.6 | 912 | 100.0 |
| CC(C)[C@H](N)C(=O)O [Valine] | > 30 |  |  |  | 17745 | 22.8 | 4305 | 0.0 | 0 | 0.0 | 0 | 100.0 |

Reference: patent US20240122865A1, “Methods of Protecting RNA” (Pfizer Inc., priority 2021, published 2024)
